Assays:
Format in all cases: cell-based
[1] = target: ZBTB7A (Zinc Finger And BTB Domain Containing 7A) (Homo sapiens (Human), UniProt O95365+Q96SW2); experiment: HUDEP-2 ZBTB7A HiBiT degradation assay; details: HUDEP-2 ZBTB7A HiBiT cells, 24 hours treatment, luminescence; for DC50: read-out: ZBTB7A EC50
Outline: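 HUDEP-2 cells carrying HiBiT-tagged ZBTB7A, grown 48 h in IMDM with EPO, SCF, insulin, transferrin, heparin, dox and 5% human plasma, then seeded at 1.0×10^6 cells/ml on pre-dispensed compound (10 concentrations, 10–0.0005 μM) for 24 h at 37 °C. Lytic HiBiT luminescence, DMSO-normalised, gave EC50 and Y-min.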

[2] = target: WIZ (Widely interspaced zinc finger) (Homo sapiens (Human), UniProt O95785+Q96SW2); experiment: HUDEP-2 WIZ HiBiT degradation assay; details: HUDEP-2 WIZ HiBiT cells, 24 hours treatment, luminescence; for DC50: read-out: WIZ EC50
Outline: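 HiBiT-tagged WIZ HUDEP-2 cells were seeded at 1.0×10^6 cells/ml in supplemented StemSpan SFEM II with doxycycline and treated 24 h at 37 °C. Remaining tagged protein was read by Nano-Glo HiBiT lytic luminescence. EC50 and Y-min were fitted after DMSO normalization across 10 concentrations, 10 to 0.0005 μM.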

[3] = tested on: fetal hemoglobin (HbF) in GCSF-mobilized human CD34+ cells; experiment: HbF Induction Assay; details: 168 h; compound 1 μM, 7 days, erythroid-differentiated human CD34+ cells, flow cytometry; DMSO baseline 15% HbF positive cells
Outline: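 GCSF-mobilized human CD34+ cells were expanded for 7 days with SCF, Flt3-L, IL-3 and EPO, then differentiated with SCF and EPO while dosed at 1 μM (0.1% DMSO), with compound refreshed every 2 days for 7 days. Viability and % HbF-positive cells and MFI were measured by flow cytometry with anti-HbF staining, relative to DMSO controls.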

WIZ (Widely interspaced zinc finger), sequence (O95785 whole entry): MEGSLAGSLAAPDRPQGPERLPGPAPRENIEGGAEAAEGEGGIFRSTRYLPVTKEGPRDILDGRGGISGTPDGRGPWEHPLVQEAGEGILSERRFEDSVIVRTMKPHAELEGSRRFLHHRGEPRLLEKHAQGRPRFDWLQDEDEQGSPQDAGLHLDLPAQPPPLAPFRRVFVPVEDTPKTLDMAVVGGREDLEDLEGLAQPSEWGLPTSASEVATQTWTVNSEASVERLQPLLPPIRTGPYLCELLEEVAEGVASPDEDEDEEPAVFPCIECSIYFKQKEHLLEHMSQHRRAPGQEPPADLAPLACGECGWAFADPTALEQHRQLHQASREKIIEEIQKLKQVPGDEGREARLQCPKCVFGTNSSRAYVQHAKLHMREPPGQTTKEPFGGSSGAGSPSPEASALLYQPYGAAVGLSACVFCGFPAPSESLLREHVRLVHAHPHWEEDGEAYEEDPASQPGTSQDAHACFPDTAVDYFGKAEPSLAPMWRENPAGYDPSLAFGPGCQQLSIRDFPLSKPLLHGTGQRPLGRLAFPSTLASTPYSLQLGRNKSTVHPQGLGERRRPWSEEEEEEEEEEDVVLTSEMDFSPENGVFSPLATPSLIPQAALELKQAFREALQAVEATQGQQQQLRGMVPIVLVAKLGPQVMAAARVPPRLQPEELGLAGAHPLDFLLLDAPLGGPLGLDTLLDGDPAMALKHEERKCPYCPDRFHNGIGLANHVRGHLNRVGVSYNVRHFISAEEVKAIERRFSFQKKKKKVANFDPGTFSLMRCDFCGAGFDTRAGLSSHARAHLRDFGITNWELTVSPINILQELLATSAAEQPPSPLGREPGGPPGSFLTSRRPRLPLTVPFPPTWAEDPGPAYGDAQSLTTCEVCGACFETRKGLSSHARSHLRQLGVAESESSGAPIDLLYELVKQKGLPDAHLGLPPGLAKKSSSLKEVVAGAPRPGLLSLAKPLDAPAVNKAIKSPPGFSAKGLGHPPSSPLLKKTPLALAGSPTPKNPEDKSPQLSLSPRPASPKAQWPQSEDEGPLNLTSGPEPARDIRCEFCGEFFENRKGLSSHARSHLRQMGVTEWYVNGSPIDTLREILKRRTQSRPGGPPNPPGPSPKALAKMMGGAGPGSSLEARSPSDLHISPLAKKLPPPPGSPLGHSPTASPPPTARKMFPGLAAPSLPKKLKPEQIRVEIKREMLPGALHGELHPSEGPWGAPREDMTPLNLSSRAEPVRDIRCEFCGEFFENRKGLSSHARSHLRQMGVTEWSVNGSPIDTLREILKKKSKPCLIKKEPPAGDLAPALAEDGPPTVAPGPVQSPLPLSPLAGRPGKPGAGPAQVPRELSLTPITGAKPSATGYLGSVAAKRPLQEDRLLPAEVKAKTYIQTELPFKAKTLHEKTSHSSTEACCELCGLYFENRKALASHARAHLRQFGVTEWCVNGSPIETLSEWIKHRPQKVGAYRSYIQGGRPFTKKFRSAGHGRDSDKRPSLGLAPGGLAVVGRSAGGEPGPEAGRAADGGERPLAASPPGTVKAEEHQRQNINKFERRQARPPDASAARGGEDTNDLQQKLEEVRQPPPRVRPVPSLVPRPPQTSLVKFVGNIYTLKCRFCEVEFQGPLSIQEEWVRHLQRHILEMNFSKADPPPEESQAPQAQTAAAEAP
WIZ (Widely interspaced zinc finger), sequence (Q96SW2 whole entry): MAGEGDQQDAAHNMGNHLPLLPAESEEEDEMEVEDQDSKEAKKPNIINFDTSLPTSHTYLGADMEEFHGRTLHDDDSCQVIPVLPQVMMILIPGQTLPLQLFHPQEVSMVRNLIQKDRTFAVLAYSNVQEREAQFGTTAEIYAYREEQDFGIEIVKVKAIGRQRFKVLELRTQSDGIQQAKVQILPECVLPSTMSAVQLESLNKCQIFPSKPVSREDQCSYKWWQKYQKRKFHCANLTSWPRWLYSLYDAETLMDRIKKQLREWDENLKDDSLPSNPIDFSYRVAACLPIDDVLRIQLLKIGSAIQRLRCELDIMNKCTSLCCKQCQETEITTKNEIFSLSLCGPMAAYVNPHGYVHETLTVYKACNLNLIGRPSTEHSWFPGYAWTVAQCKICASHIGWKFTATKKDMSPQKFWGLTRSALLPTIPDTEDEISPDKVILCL
WIZ (Widely interspaced zinc finger), sequence (Q16531 whole entry partner): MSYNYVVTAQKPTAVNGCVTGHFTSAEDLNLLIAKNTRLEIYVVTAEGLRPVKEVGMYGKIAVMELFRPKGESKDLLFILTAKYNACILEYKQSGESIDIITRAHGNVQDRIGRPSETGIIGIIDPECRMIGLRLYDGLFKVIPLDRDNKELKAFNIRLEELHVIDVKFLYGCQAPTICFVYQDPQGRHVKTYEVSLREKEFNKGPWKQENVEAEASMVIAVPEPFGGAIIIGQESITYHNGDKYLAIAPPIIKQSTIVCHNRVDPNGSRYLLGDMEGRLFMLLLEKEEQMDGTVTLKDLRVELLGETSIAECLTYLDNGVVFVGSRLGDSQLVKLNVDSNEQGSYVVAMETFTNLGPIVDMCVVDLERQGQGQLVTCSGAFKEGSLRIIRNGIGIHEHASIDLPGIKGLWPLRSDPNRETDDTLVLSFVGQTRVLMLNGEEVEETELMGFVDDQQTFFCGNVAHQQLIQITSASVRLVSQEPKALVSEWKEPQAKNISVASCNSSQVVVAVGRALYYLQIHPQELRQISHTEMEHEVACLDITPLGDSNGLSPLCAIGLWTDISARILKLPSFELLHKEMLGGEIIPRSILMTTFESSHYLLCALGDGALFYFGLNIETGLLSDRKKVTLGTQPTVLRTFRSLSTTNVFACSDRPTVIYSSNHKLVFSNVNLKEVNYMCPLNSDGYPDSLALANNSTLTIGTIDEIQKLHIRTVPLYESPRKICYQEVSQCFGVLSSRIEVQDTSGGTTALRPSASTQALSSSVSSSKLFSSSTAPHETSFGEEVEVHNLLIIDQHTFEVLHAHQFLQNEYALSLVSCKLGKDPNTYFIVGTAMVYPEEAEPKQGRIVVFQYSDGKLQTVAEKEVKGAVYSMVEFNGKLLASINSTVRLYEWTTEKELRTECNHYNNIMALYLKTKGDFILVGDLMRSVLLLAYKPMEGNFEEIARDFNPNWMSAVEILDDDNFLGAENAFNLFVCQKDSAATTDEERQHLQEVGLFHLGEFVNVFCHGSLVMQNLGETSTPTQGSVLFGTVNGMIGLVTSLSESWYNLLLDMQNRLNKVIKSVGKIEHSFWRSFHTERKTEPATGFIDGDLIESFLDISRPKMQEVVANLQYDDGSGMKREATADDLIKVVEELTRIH
ZBTB7A (Zinc Finger And BTB Domain Containing 7A), sequence (O95365 whole entry, the tested form may be a part): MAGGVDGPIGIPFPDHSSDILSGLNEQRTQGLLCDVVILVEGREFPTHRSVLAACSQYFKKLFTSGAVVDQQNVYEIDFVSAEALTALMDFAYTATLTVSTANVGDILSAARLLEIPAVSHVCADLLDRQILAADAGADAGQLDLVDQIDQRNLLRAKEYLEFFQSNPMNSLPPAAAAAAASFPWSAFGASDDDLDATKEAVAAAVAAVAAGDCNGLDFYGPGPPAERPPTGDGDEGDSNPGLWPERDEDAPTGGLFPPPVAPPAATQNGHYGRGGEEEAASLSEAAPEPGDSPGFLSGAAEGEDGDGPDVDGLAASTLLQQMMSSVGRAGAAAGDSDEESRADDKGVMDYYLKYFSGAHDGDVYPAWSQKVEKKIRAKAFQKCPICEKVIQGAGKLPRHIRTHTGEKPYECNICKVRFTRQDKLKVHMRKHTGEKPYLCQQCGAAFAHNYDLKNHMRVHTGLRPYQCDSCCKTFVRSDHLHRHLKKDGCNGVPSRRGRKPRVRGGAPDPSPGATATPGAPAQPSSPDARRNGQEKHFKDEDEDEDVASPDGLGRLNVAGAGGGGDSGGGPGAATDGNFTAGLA
ZBTB7A (Zinc Finger And BTB Domain Containing 7A), sequence (Q96SW2 whole entry, the tested form may be a part): as the sequence (Q96SW2 whole entry) above
ZBTB7A (Zinc Finger And BTB Domain Containing 7A), sequence (Q16531 whole entry partner, the tested form may be a part): as the sequence (Q16531 whole entry partner) above

| Structure (SMILES) | EC50 [1] | DC50 [2] | activation at 1 µM [3] | DC50 [1] | EC50 [2] |
| --- | --- | --- | --- | --- | --- |
| Cc1ncncc1Oc1ccc2c(cnn2C)c1Nc1cccc2c1C(=O)N(C1CCC(=O)NC1=O)C2=O (stereo not drawn) [Compound 26, 2-(2,6-dioxopiperidin-3-yl)-4-((1-methyl-5-((4-methylpyrimidin-5-yl)oxy)-1H-indazol-4-yl)amino)isoindoline-1,3-dione] | > 100 nM | 10 to 100 nM | < 33% |  |  |
| Cn1ncc2cc(Oc3ccccc3)c(Nc3cccc4c3C(=O)N(C3CCC(=O)NC3=O)C4=O)cc21 (stereo not drawn) [Compound 27, 2-(2,6-dioxopiperidin-3-yl)-4-((1-methyl-5-phenoxy-1H-indazol-6-yl)amino)isoindoline-1,3-dione] | > 100 nM | 10 to 100 nM | < 33% |  |  |
| Cn1ncc2cc(Nc3cccc4c3C(=O)N(C3CCC(=O)NC3=O)C4=O)c(-c3cccc(C(F)(F)F)c3)cc21 (stereo not drawn) [Compound 28, 2-(2,6-dioxopiperidin-3-yl)-4-((1-methyl-6-(3-(trifluoromethyl)phenyl)-1H-indazol-5-yl)amino)isoindoline-1,3-dione] | > 100 nM | > 100 nM | < 33% |  |  |
| Cc1nccc(-c2cc3c(cnn3C)cc2Nc2cccc3c2C(=O)N(C2CCC(=O)NC2=O)C3=O)c1C (stereo not drawn) [Compound 29, 4-((6-(2,3-dimethylpyridin-4-yl)-1-methyl-1H-indazol-5-yl)amino)-2-(2,6-dioxopiperidin-3-yl)isoindoline-1,3-dione] | > 100 nM | 10 to 100 nM | < 33% |  |  |
| COc1cc(-c2ccccc2)c(Nc2cccc3c2C(=O)N(C2CCC(=O)NC2=O)C3=O)cn1 (stereo not drawn) [Compound 30, 2-(2,6-dioxopiperidin-3-yl)-4-((6-methoxy-4-phenylpyridin-3-yl)amino)isoindoline-1,3-dione] |  | 10 to 100 nM | < 33% | 30 to 100 nM |  |
| CN(C)C1CCc2ccc(Nc3cccc4c3C(=O)N([C@@]3(C)CCC(=O)NC3=O)C4=O)cc21 (stereo partly drawn) [Compound 31, 4-((3-(dimethylamino)-2,3-dihydro-1H-inden-5-yl)amino)-2-((S)-3-methyl-2,6-dioxopiperidin-3-yl)isoindoline-1,3-dione] | > 100 nM | 10 to 100 nM | 33 to 66% |  |  |
| Cc1cc(-c2cc3c(cc2Nc2cccc4c2C(=O)N([C@H]2CCC(=O)NC2=O)C4=O)N(C)C(=O)CC3)ccn1 [Compound 32, (S)-2-(2,6-dioxopiperidin-3-yl)-4-((1-methyl-6-(2-methylpyridin-4-yl)-2-oxo-1,2,3,4-tetrahydroquinolin-7-yl)amino)isoindoline-1,3-dione] |  |  | 66 to 100% | 30 to 100 nM | < 10 nM |
| Cc1csc(-c2cc3c(cc2Nc2cccc4c2C(=O)N(C2CCC(=O)NC2=O)C4=O)N(C)C(=O)CC3)n1 (stereo not drawn) [Compound 39, 2-(2,6-dioxopiperidin-3-yl)-4-((1-methyl-6-(4-methylthiazol-2-yl)-2-oxo-1,2,3,4-tetrahydroquinolin-7-yl)amino)isoindoline-1,3-dione] |  | 10 to 100 nM | 33 to 66% | 30 to 100 nM |  |
| Cc1cc(-c2cc3c(cc2Nc2cccc4c2C(=O)N([C@H]2CCC(=O)NC2=O)C4=O)n(C)c(=O)n3C)cc(C)n1 [Compound 40, (S)-4-((6-(2,6-dimethylpyridin-4-yl)-1,3-dimethyl-2-oxo-2,3-dihydro-1H-benzo[d]imidazol-5-yl)amino)-2-(2,6-dioxopiperidin-3-yl)isoindoline-1,3-dione] | < 30 nM |  | 66 to 100% |  | < 10 nM |
| Cc1cc(-c2cc3c(cc2Nc2cccc4c2C(=O)N([C@H]2CCC(=O)NC2=O)C4=O)n(C)c(=O)n3C)ccn1 [Compound 41, (S)-4-((1,3-dimethyl-6-(2-methylpyridin-4-yl)-2-oxo-2,3-dihydro-1H-benzo[d]imidazol-5-yl)amino)-2-(2,6-dioxopiperidin-3-yl)isoindoline-1,3-dione] | < 30 nM |  | 66 to 100% |  | < 10 nM |
| Cc1cc(-c2cc3c(cnn3C)cc2Nc2cccc3c2C(=O)N([C@H]2CCC(=O)NC2=O)C3=O)ccn1 [Compound 42, (S)-2-(2,6-dioxopiperidin-3-yl)-4-((1-methyl-6-(2-methylpyridin-4-yl)-1H-indazol-5-yl)amino)isoindoline-1,3-dione] |  | > 100 nM | 33 to 66% | 30 to 100 nM |  |
| Cc1cc(-c2cc3c(cc2Nc2cccc4c2C(=O)N(C2CCC(=O)NC2=O)C4=O)N(C)C(=O)CC3)ccn1 (stereo not drawn) [Compound 43, 2-(2,6-dioxopiperidin-3-yl)-4-((1-methyl-6-(2-methylpyridin-4-yl)-2-oxo-1,2,3,4-tetrahydroquinolin-7-yl)amino)isoindoline-1,3-dione] | < 30 nM |  | 66 to 100% |  | < 10 nM |
| Cc1cc(-c2cc3c(cnn3[C@@H]3CCOC3)cc2Nc2cccc3c2C(=O)N([C@H]2CCC(=O)NC2=O)C3=O)ccn1 [Compound 44, 2-((S)-2,6-dioxopiperidin-3-yl)-4-((6-(2-methylpyridin-4-yl)-1-((R)-tetrahydrofuran-3-yl)-1H-indazol-5-yl)amino)isoindoline-1,3-dione] |  | 10 to 100 nM | 66 to 100% | 30 to 100 nM |  |
| Cc1nccc(-c2cc3c(cc2Nc2cccc4c2C(=O)N(C2CCC(=O)NC2=O)C4=O)N(C)C(=O)CC3)c1F (stereo not drawn) [Compound 45, 2-(2,6-dioxopiperidin-3-yl)-4-((6-(3-fluoro-2-methylpyridin-4-yl)-1-methyl-2-oxo-1,2,3,4-tetrahydroquinolin-7-yl)amino)isoindoline-1,3-dione] | < 30 nM |  | 66 to 100% |  | < 10 nM |
| Cc1cc(-c2cc3c(cc2Nc2cccc4c2C(=O)N(C2CCC(=O)NC2=O)C4=O)N(C)C(=O)CC3)c(F)cn1 (stereo not drawn) [Compound 46, 2-(2,6-dioxopiperidin-3-yl)-4-((6-(5-fluoro-2-methylpyridin-4-yl)-1-methyl-2-oxo-1,2,3,4-tetrahydroquinolin-7-yl)amino)isoindoline-1,3-dione] | < 30 nM |  | 66 to 100% |  | < 10 nM |
| Cc1nccc(-c2cc3c(cc2Nc2cccc4c2C(=O)N(C2CCC(=O)NC2=O)C4=O)N(C)C(=O)CC3)c1Cl (stereo not drawn) [Compound 47, 4-((6-(3-chloro-2-methylpyridin-4-yl)-1-methyl-2-oxo-1,2,3,4-tetrahydroquinolin-7-yl)amino)-2-(2,6-dioxopiperidin-3-yl)isoindoline-1,3-dione] | < 30 nM |  | 66 to 100% |  | < 10 nM |
| Cc1cc(-c2cc3c(cc2Nc2cccc4c2C(=O)N(C2CCC(=O)NC2=O)C4=O)N(C)C(=O)CC3)cc(C)n1 (stereo not drawn) [Compound 48, 4-((6-(2,6-dimethylpyridin-4-yl)-1-methyl-2-oxo-1,2,3,4-tetrahydroquinolin-7-yl)amino)-2-(2,6-dioxopiperidin-3-yl)isoindoline-1,3-dione] | < 30 nM |  | 66 to 100% |  | < 10 nM |
| Cc1cc(-c2cc3c(cnn3[C@@H]3CCOC3)cc2Nc2cccc3c2C(=O)N([C@@H]2CCC(=O)NC2=O)C3=O)ccn1 [Compound 52, 2-((R)-2,6-dioxopiperidin-3-yl)-4-((6-(2-methylpyridin-4-yl)-1-((R)-tetrahydrofuran-3-yl)-1H-indazol-5-yl)amino)isoindoline-1,3-dione] | > 100 nM |  | 66 to 100% |  | < 10 nM |

From patent publication US20240208937A1, “Compounds and Their Use for Treatment of Hemoglobinopathies” (Bristol-Myers Squibb Company, priority 2022, published 2024)
